This is an account of results in ChEMBL document CHEMBL1201862, “PubChem BioAssay data set” (2004).

Among the test systems are 786-0; A498; A549; BT-549; DU-145; HCC 2998; HCT-15; LOX IMVI; MCF7; Malme-3M; NCI-H226; NCI-H23; NCI-H460; RXF 393; SF-295; SNB-19; SNB-75; U-251; UACC-62; UO-31.
What all share (assay): DTP human tumour cell line panel, 48 h

Molecules are shown by their SMILES.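 Following 48 hours of exposure in 96-well plates, responses at five concentrations were used to interpolate endpoints linearly. Here, GI50 denotes the concentration required for 50% inhibition of growth.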 Activity calls are given as the source filed them. Cut-off read from the data, not from the text of the source: active = GI50 up to about 1.1 µM and inactive = higher.

Usually GI50 stands for the concentration that inhibits growth by half. `C=C1c2nc3ccccc3n2C=C(c2ccc(OC)cc2)N1c1ccc(OCCN2CCOCC2)cc1`: the GI50 with 786-0 was 36.9 µM (inactive); in the assay with A498, 66.8 µM (inactive); in the assay on A549 it was 28.4 µM (inactive); in the assay with BT-549, 49.2 µM (inactive); with DU-145 it was > 54.8 µM (inactive); in the assay on HCC 2998, 86.3 µM (inactive). The GI50 was 6.15 µM with HCT-15; 13.3 µM (inactive) in the assay with LOX IMVI; 12.3 µM (inactive) with MCF7; 6.52 µM (inactive) with Malme-3M; > 100 µM (inactive) in the assay with NCI-H226; > 25.2 µM (inactive) in the assay on NCI-H23. Moreover, the GI50 is 3.72 µM (inactive) in the assay with NCI-H460; 71.6 µM (inactive) with RXF 393; 41.7 µM (inactive) in the assay with SF-295; > 100 µM (inactive) with SNB-19; > 100 µM (inactive) in the assay on SNB-75; > 93.3 µM (inactive) in the assay on U-251. Also, the GI50 in the assay on UACC-62 is 20.4 µM (inactive); in the assay on UO-31, 24.7 µM (inactive).
On to `CC(C)(C)c1cc(C(=O)/C=C/C=C/c2ccccc2)cc(C(C)(C)C)c1O`, for which the GI50 is 17.1 µM (inactive) in the assay with 786-0; 20.6 µM (inactive) in the assay with A498; 17.8 µM (inactive) in the assay on A549; 18.5 µM (inactive) in the assay on BT-549; 29.4 µM (inactive) in the assay with DU-145; 14 µM (inactive) in the assay on HCC 2998. Further, the GI50 in the assay on HCT-15 was 15.9 µM; in the assay with LOX IMVI, 19.8 µM (inactive); in the assay on MCF7, 8.3 µM (inactive); in the assay on Malme-3M it was 47.9 µM (inactive); in the assay on NCI-H226, 24.3 µM (inactive); in the assay with NCI-H23 it was 27.2 µM (inactive). For the same compound, the GI50 with NCI-H460 was 15.4 µM (inactive); in the assay with RXF 393, 2.94 µM (inactive); in the assay with SF-295, 27.2 µM (inactive); in the assay on SNB-19 it was 22.3 µM (inactive); in the assay with SNB-75, 14.7 µM (inactive); with U-251 it was 14.2 µM (inactive). The GI50 with UACC-62 is 18.1 µM (inactive); in the assay on UO-31, 17.6 µM (inactive).
Turning to `COC(=O)/C=C/c1ccccc1N=[S@](C)(=O)c1ccc(C)cc1`, the GI50 in the assay with 786-0 was 27.9 µM (inactive); in the assay with A498, 8.41 µM (inactive); in the assay with A549 it was 27.9 µM (inactive); in the assay on BT-549, 33 µM (inactive); in the assay with DU-145 it was 29.1 µM (inactive); in the assay on HCC 2998 it was 24.2 µM (inactive). Further, the concentration for 50% growth inhibition (GI50) in the assay on HCT-15 is 6.14 µM; in the assay on LOX IMVI, 23.5 µM (inactive); in the assay on MCF7, 13.4 µM (inactive); with Malme-3M, 14 µM (inactive); in the assay with NCI-H226, 36.1 µM (inactive); in the assay on NCI-H23, 28.1 µM (inactive). For the same compound, the GI50 in the assay on NCI-H460 was 18.4 µM (inactive); in the assay with RXF 393, 13.2 µM (inactive); with SF-295 it was 5.96 µM (inactive); in the assay with SNB-19 it was 19.1 µM (inactive); in the assay on SNB-75, 6.21 µM (inactive); in the assay with U-251, 17.7 µM (inactive). Also, the GI50 in the assay on UACC-62 was 8.24 µM (inactive); in the assay with UO-31, 50.4 µM (inactive).
For the compound `CC(C)OP(=O)(OC(C)C)C(C(C)C)N(C)/C(N)=N/C#N` (stereo not given), the GI50 with 786-0 was > 10 µM (inactive); with A498, > 100 µM (inactive); in the assay on A549 it was > 100 µM (inactive); in the assay with BT-549, > 100 µM (inactive); with DU-145, > 100 µM (inactive); in the assay with HCC 2998 it was > 100 µM (inactive). Further, the GI50 in the assay with HCT-15 is > 100 µM; in the assay on LOX IMVI it was > 100 µM (inactive); with MCF7 it was > 100 µM (inactive); in the assay on Malme-3M, > 100 µM (inactive); in the assay with NCI-H226 it was > 100 µM (inactive); in the assay with NCI-H23 it was > 100 µM (inactive). Further, the GI50 in the assay on NCI-H460, in the assay with RXF 393, with SF-295, with SNB-19, in the assay with SNB-75 and in the assay with U-251 was > 100 µM (inactive) each time. The GI50 with UACC-62 and in the assay on UO-31 was > 100 µM (inactive) each time.
As to `CCOP(=O)(OCC)C(Cc1cn(S(=O)(=O)c2ccc(C)cc2)cn1)C(=O)O` (stereo not given), the GI50 with 786-0, in the assay with A498, in the assay on A549, in the assay on BT-549, with DU-145 and with HCC 2998 was > 100 µM (inactive) throughout. In addition, the GI50 in the assay on HCT-15 is > 100 µM; in the assay with LOX IMVI, > 100 µM (inactive); in the assay on MCF7 it was > 100 µM (inactive); with Malme-3M, > 100 µM (inactive); with NCI-H226, > 100 µM (inactive); in the assay with NCI-H23, > 100 µM (inactive). Moreover, the GI50 in the assay on NCI-H460, with RXF 393, with SF-295, in the assay with SNB-19, in the assay with SNB-75 and in the assay on U-251 was > 100 µM (inactive) each time. Further, the GI50 in the assay with UACC-62 and in the assay on UO-31 was > 100 µM (inactive) each time.
Consider `CCOC(=O)Cc1[nH]c(C(=O)c2ccccc2)cc1C(=O)c1ccccc1`, for which the GI50 in the assay on 786-0 was > 10 µM (inactive); in the assay on A498 it was 36.8 µM (inactive); with A549 it was 25.4 µM (inactive); in the assay with BT-549, 20.6 µM (inactive); with DU-145, > 10 µM (inactive); with HCC 2998, 50.4 µM (inactive). The GI50 is 68.7 µM in the assay with HCT-15; 22.2 µM (inactive) with LOX IMVI; > 10 µM (inactive) in the assay on MCF7; 33.6 µM (inactive) with Malme-3M; 23.3 µM (inactive) with NCI-H226; 17.4 µM (inactive) in the assay on NCI-H23. Besides, the GI50 is 71.8 µM (inactive) in the assay with NCI-H460; 24.3 µM (inactive) in the assay on RXF 393; > 10 µM (inactive) in the assay with SF-295; > 100 µM (inactive) in the assay on SNB-19; 59.8 µM (inactive) in the assay on SNB-75; > 100 µM (inactive) in the assay with U-251. In addition, the GI50 with UACC-62 is > 100 µM (inactive); in the assay on UO-31, > 10 µM (inactive).
With `CN(C)Cc1cc(C(=O)O)cc(CN(C)C)c1O`, the GI50 in the assay on 786-0, in the assay on A498, in the assay on A549, in the assay on BT-549, with DU-145 and in the assay with HCC 2998 was > 100 µM (inactive) each time. The GI50 in the assay on HCT-15 is > 100 µM; in the assay with LOX IMVI, > 100 µM (inactive); in the assay on MCF7, > 100 µM (inactive); in the assay on Malme-3M, > 100 µM (inactive); with NCI-H226, > 100 µM (inactive); in the assay on NCI-H23, > 100 µM (inactive). For the same compound, the GI50 in the assay on NCI-H460, in the assay with RXF 393, in the assay with SF-295, in the assay on SNB-19, in the assay on SNB-75 and with U-251 was > 100 µM (inactive) throughout. The GI50 with UACC-62 and in the assay on UO-31 was > 100 µM (inactive) throughout.
